The source of these data is ChEMBL document CHEMBL1128009, “Stereoselectivity of the positive inotropic effects of newer diazinone-cardiotonics” (Bioorg Med Chem Lett, 1994).

A short description of assay [1]: Calcium sensitizing activity. It is filed as functional.
A further assay deals with Phosphodiesterase 3 (Homo sapiens, UniProt Q14432+Q13370). Nature of the assay: Inhibition of phosphodiesterase 3. It is filed as protein assay.
Assay [2] is described as follows: Calcium sensitizing activity (Active). The class given is functional.
Assay [3] can be described thus: Calcium sensitizing activity (No Effect). It is filed as functional.

In general, EC50 refers to the concentration giving half of the maximal effect. With `COc1ccc(C(=O)N2CCCc3cc(C4=NNC(=O)SC4C)ccc32)cc1OC` (single isomer, unassigned; (+)), the EC50 in assay [1] was 1.7 µM.

The term IC50 denotes the point on the concentration scale where inhibition reaches its midpoint. A lower IC50 goes with greater potency in that assay. Take `CC1CC(=O)NN=C1c1ccc2[nH]c(-c3cc[nH]n3)nc2c1` (single isomer, unassigned; (+)) [MERIBENDAN]: in assay [1], the 50% effective concentration (EC50) was found to be 470 µM. This compound also gave an IC50 against Phosphodiesterase 3 of 1.6 µM.

With `COc1ccc(-c2nc3cc(C4=NNC(=O)CC4C)ccc3[nH]2)cc1` (single isomer, unassigned; (+)) [PIMOBENDAN], in assay [1], the EC50 is 152 µM.

Turning to `COc1ccc(C(=O)N2CCCc3cc(C4=NNC(=O)SC4C)ccc32)cc1OC` (single isomer, unassigned; (-)), in assay [1], the EC50 is over 100 µM. In the case of `CC1CC(=O)NN=C1c1ccc2[nH]c(-c3cc[nH]n3)nc2c1` (single isomer, unassigned; (-)) [MERIBENDAN], the EC50 in assay [1] was found to be 190 µM. This compound also yielded an IC50 against Phosphodiesterase 3 of 0.04 µM. For `COc1ccc(-c2nc3cc(C4=NNC(=O)CC4C)ccc3[nH]2)cc1` (stereo in doubt) [PIMOBENDAN], the EC50 in assay [1] was found to be 100 µM.

`CC1CC(=O)NN=C1c1cc2ccc(OCCN3CCCCC3)cc2s1` (stereo in doubt; (+)): the EC50 entry in assay [2] is “Active”. Moreover, the IC50 at Phosphodiesterase 3 amounted to 14.8 µM. Regarding `CC1CC(=O)NN=C1c1cc2ccc(OCCN3CCCCC3)cc2s1` (stereo in doubt; (-)), the EC50 entry in assay [3] was “Not Active”. On Phosphodiesterase 3, this compound showed an IC50 of 0.08 µM.

For the compound `C[C@@H]1CC(=O)NN=C1c1ccc(NN=C(C#N)C#N)cc1` [LEVOSIMENDAN], the EC50 in assay [1] is over 100 µM. For the same compound, at Phosphodiesterase 3, the IC50 came out at 0.008 µM.

`CC1CC(=O)NN=C1c1ccc(NN=C(C#N)C#N)cc1` (stereo unspecified) [SIMENDAN]: the EC50 in assay [1] was over 100 µM. This compound came in with an IC50 against Phosphodiesterase 3 of 1.5 µM.
